Data on 9 molecules can be found in patent US6107068A, “Coenzyme A disulfide reductase, and inhibitors thereof useful as antimicrobial agents” (The University of British Columbia, priority 1997, dated 2000).

As a reminder, the Km is the substrate concentration at which the rate is half of its maximum. Usually kcat stands for the number of substrate molecules converted per active site and unit of time at saturation.

In data set [1] the target is S. aureus coenzyme A disulfide reductase (Staphylococcus aureus, UniProt O52582). As to the kind of experiment: Steady state kinetic analysis of NADPH oxidation by disulfide substrates catalyzed by purified CoADR (340 nm).
Sequence of S. aureus coenzyme A disulfide reductase (O52582 2-438): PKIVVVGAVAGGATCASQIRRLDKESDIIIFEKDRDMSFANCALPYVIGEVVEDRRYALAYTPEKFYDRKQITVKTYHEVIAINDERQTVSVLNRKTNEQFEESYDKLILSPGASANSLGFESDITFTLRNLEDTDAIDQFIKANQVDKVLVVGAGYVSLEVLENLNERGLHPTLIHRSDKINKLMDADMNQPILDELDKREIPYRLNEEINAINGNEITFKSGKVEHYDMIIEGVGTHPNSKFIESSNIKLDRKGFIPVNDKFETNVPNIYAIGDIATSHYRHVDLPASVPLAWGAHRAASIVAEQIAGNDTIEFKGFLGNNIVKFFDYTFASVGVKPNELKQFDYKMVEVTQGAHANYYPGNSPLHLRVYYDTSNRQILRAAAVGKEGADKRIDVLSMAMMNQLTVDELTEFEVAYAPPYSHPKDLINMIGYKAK
Description: (§1) DTNB assays were performed in Tris-HCl (20 mM), pH 8.0, containing EDTA (1 mM) (TE buffer), and were monitored at 412 nm for the nitrobenzothiolate anion (e^412 =15,600 M^-1 cm^-1 (Ellman (1959) Arch. Biochem. Biophys. 82:70-77)). […] For kinetic analysis of purified CoADR activity, the oxidation of NADPH was measured as the decrease in absorbance at 340 nm (De^340 =6,220 M^-1 cm^-1), and was carried out in Tris-HCl (50 mM), pH 7.8, containing NaCl (50 mM).
(§2) The specificity of CoADR for these substrates and various other biological disulfides were quantitated kinetically. Kinetic measurements were performed in a 1 cm path-length quartz cuvette maintained at 37° C. […] Enzyme and NADPH were combined in buffer and equilibrated to 37° C., and the reaction was initialized by the addition of the disulfide substrate. The activity of CoADR was monitored at 340 nm as the decrease in absorbance resulting from the oxidation of NADPH. All kinetic measurements were recorded in the linear range, and at least seven substrate concentrations were used for each analysis. Kinetic constants were calculated from a linear least squares fit of the initial velocity data to the Michaelis-Menton equation using the program HyperO.
The conditions of data set [2]: background statement, Newton et al. (1996); cited from earlier work.
Data set [3] is described as follows: Cu2+ catalyzed oxidation of thiols (remaining thiol by DTNB). To be noted: thiol 1 mM, CuCl2 1 mM, Tris-HCl pH 7.5, ambient temperature. The data set is classed as physicochemical. The method, then: To determine the relative stability of CoA to heavy metal-catalyzed oxidation, the rate of Cu^2+ catalyzed oxidation of cysteine, GSH, and CoA were compared. Each sample (2 ml) of thiol (1 mM) in Tris-HCl buffer (20 mM), pH 7.5, containing CuCl2 (1 mM) was incubated at ambient temperature. Thiol determination was then carried out at various times by adding aliquots ([…]) from each sample to a solution ([…]) of DTNB (1 mM) in Tris-HCl buffer (20 mM), pH 8.0, containing EDTA (1 mM). The absorbance of these samples at 412 nm was measured and the concentration of remaining thiol determined.

Data set [4] deals with Coenzyme A disulfide reductase (CoADR) in extracts of Staphylococcus aureus (Staphylococcus aureus, UniProt O52582). As to the kind of experiment: Pyridine nucleotide and disulfide dependent reduction of DTNB by dialyzed S. aureus extracts. It is filed as biochemical. On the procedure:
Concentrations of […] (and dephosphoCoA disulfide) were measured spectrophotometrically at 340 nm (e^340 =6220 M^-1 cm^-1), 260 nm (e^260 =33,600 M^-1 cm^-1), and 450 nm (e^450 =11,000 M^-1 cm^-1), respectively. DTNB assays were performed in Tris-HCl (20 mM), pH 8.0, containing EDTA (1 mM) (TE buffer), and were monitored at 412 nm for the nitrobenzothiolate anion (e^412 =15,600 M^-1 cm^-1 (Ellman (1959) Arch. Biochem. Biophys. 82:70-77)). Protein concentrations were determined by reaction with bicinchoninic acid and copper sulfate (Deutscher (1990) in Meth. Enzymol., vol. 182. San Diego: Academic Press, Inc.). During purification, CoADR activity in crude extracts was monitored by the NADPH and CoA disulfide dependent reduction of DTNB. DTNB and all substrates were added at 0.1 mM. For kinetic analysis of purified CoADR activity, the oxidation of NADPH was measured as the decrease in absorbance at 340 nm (De^340 =6,220 M^-1 cm^-1), and was carried out in Tris-HCl (50 mM), pH 7.8, containing NaCl (50 mM).
In order to identify the enzyme responsible for maintaining CoA in its reduced form, S. aureus extracts were analyzed for a disulfide reductase specific for CoA disulfide. An overnight culture (10 ml) of R8325-4 was centrifuged (5,000×g, 10 min), resuspended in 3 ml of TE buffer containing lysostaphin (5 mg/ml), and incubated at 37° C. for 30 min until the suspension became viscous. Glass beads (1 g) and PMSF (to 1 mM) were added, the mixture was vortexed for two minutes and then centrifuged (14,000×g, 10 min) to remove the insoluble cellular debris. The resulting viscous lysate was dialyzed exhaustively (3,600 Mr cutoff) against TE buffer. The dialysate was then assayed for the pyridine nucleotide (1 mM) and CoA disulfide (1 mM) dependent reduction of DTNB (1 mM).

Data set [5] deals with CC(C)(COP(=O)(O)O)[C@@H](O)C(=O)NCCC(=O)NCCSSCCNC(=O)CCNC(=O)[C@H](O)C(C)(C)COP(=O)(O)O. The data set can be described thus: purified protein, by the assay type. To be noted: other: disulfide substrate varied, NADPH maintained at 200 mM, 37° C., nd = no activity detected.
Description: as §1, §2
Data set [6] relates to CC(C)(COP(=O)(O)OP(=O)(O)OC[C@H]1O[C@@H](n2cnc3c(N)ncnc32)[C@H](O)[C@@H]1O)[C@@H](O)C(=O)NCCC(=O)NCCSSCCNC(=O)CCNC(=O)[C@H](O)C(C)(C)COP(=O)(O)OP(=O)(O)OC[C@H]1O[C@@H](n2cnc3c(N)ncnc32)[C@H](O)[C@@H]1O. As to the kind of experiment: purified protein, by the assay type. To be noted: other: disulfide substrate varied, NADPH maintained at 200 mM, 37° C., nd = no activity detected.
Description: as §1, §2

Data set [7] relates to CC(C)(COP(=O)(O)OP(=O)(O)OC[C@H]1O[C@@H](n2cnc3c(N)ncnc32)[C@H](O)[C@@H]1OP(=O)(O)O)[C@@H](O)C(=O)NCCC(=O)NCCSSCCNC(=O)CCNC(=O)[C@H](O)C(C)(C)COP(=O)(O)OP(=O)(O)OC[C@H]1O[C@@H](n2cnc3c(N)ncnc32)[C@H](O)[C@@H]1OP(=O)(O)O. The data set can be described thus: purified protein, by the assay type. To be noted: other: disulfide substrate varied, NADPH maintained at 200 mM, 37° C., nd = no activity detected.
Description: as §1, §2

Data set [8] concerns CC(C)(COP(=O)(O)OP(=O)(O)OC[C@H]1O[C@@H](n2cnc3c(N)ncnc32)[C@H](O)[C@@H]1OP(=O)(O)O)[C@@H](O)C(=O)NCCC(=O)NCCSSC[C@H](NC(=O)CC[C@H](N)C(=O)O)C(=O)NCC(=O)O. As to the kind of experiment: purified protein, by the assay type. The following applies: other: disulfide substrate varied, NADPH maintained at 200 mM, 37° C., nd = no activity detected.
Description: as §1, §2
Data set [9] relates to NC(=O)C1=CN([C@@H]2O[C@H](COP(=O)(O)OP(=O)(O)OC[C@H]3O[C@@H](n4cnc5c(N)ncnc54)[C@H](OP(=O)(O)O)[C@@H]3O)[C@@H](O)[C@H]2O)C=CC1. The data set can be described thus: purified protein, by the assay type.
Description: as §1, §2
Data set [10] deals with the molecule itself. The data set can be described thus: gel exclusion chromatography of the native enzyme (approximately 85 kD) compared with SDS-PAGE of the subunit (~50 kD).
The mark [11] stands for this setting: other: NADPH varied, CoA disulfide maintained at 120 mM, 37° C.

Sequence of Coenzyme A disulfide reductase (CoADR) in extracts of Staphylococcus aureus (O52582 2-438): as above

Turning to `CC(C)(COP(=O)(O)OP(=O)(O)OC[C@H]1O[C@@H](n2cnc3c(N)ncnc32)[C@H](O)[C@@H]1O)[C@@H](O)C(=O)NCCC(=O)NCCSSCCNC(=O)CCNC(=O)[C@H](O)C(C)(C)COP(=O)(O)OP(=O)(O)OC[C@H]1O[C@@H](n2cnc3c(N)ncnc32)[C@H](O)[C@@H]1O` [3'-dephospho-CoA disulfide], in data set [1], the “change in kcat as compared to CoA disulfide” value is listed as “no detectable change” and the “increase in Km as compared to CoA disulfide” value came out at 10 fold.
Regarding `CC(C)(COP(=O)(O)O)[C@@H](O)C(=O)NCCC(=O)NCCSSCCNC(=O)CCNC(=O)[C@H](O)C(C)(C)COP(=O)(O)O` [4,4'-diphospho-pantethine], the “kcat lower than for 3'-dephospho-CoA disulfide” value in [1] is 2-3 fold.
As for `CC(C)(COP(=O)(O)OP(=O)(O)OC[C@H]1O[C@@H](n2cnc3c(N)ncnc32)[C@H](O)[C@@H]1OP(=O)(O)O)[C@@H](O)C(=O)NCCC(=O)NCCS` [CoA, Coenzyme A], the “stability to heavy metal-catalyzed auto-oxidation” value in data set [2] is recorded as “slightly more stable than glutathione”.
Consider `N[C@@H](CCC(=O)N[C@@H](CS)C(=O)NCC(=O)O)C(=O)O` [GSH, g-glutamyl-cysteinyl-glycine], for which the “stability to copper-catalyzed autooxidation” value in data set [3] is “much more stable than cysteine”.
As for `NC(=O)C1=CN([C@@H]2O[C@H](COP(=O)(O)OP(=O)(O)OC[C@H]3O[C@@H](n4cnc5c(N)ncnc54)[C@H](O)[C@@H]3O)[C@@H](O)[C@H]2O)C=CC1` [NADH], in data set [4], the “use in the CoA disulfide dependent reduction of DTNB” value is given as “cannot be used”.
In the case of `N[C@@H](CSSC[C@H](N)C(=O)O)C(=O)O` [cystine], in data set [4], the “function in the NADPH-dependent reduction of DTNB” value is reported as “did not function”. Further, the “turnover / activity with CoADR” value in [1] is reported as “No activity could be detected”.
For the molecule `CC(C)(CO)[C@@H](O)C(=O)NCCC(=O)NCCSSCCNC(=O)CCNC(=O)[C@H](O)C(C)(C)CO` [pantethine], the “function in the NADPH-dependent reduction of DTNB” value in data set [4] was “did not function”. Also, the “turnover / activity with CoADR” value in data set [1] is recorded as “not turned over”.
“S. aureus coenzyme A disulfide reductase (Staphylococcus aureus subsp. aureus NCTC 8325)”: the Michaelis constant (Km) in data set [5] was determined as 80 µM; in data set [6], 140 µM; in data set [7], 11 µM; in data set [8] it was 1100 µM; in [9] (setting [11]), 1.6 µM; in data set [9] (other: at saturating CoA disulfide, 37.0 °C), 2 µM. In data set [9] (setting [11]), the kcat turned out to be 17 ± 1 s⁻¹.

B1: Coenzyme A disulfide reductase (CoADR) from Staphylococcus aureus (enzyme)
chain: PKIVVVGAVAGGATCASQIRRLDKESDIIIFEKDRDMSFANCALPYVIGEVVEDRRYALAYTPEKFYDRKQITVKTYHEVIAINDERQTVSVLNRKTNEQFEESYDKLILSPGASANSLGFESDITFTLRNLEDTDAIDQFIKANQVDKVLVVGAGYVSLEVLENLNERGLHPTLINRSDKINKLMDADMNQPILDELDKREIPYRLNEEINAINGNEITFKSGKVEHYDMIIEGVGTHPNSKFIESSNIKLDRKGFIPVNDKFETNVPNIYAIGDIATSHYRHVDLPASVPLAWGAHRAASIVAEQIAGNDTIEFKGFLGNNIVKFFDYTFASVGVKPNELKQFDYKMVEVTQGAHANYYPGNSPLHLRVYYDTSNRQILRAAAVGKEGADKRIDVLSMAMMNQLTVDELTEFEVAYAPPYSHPKDLINMIGYKAK
With B1, the binding result in data set [10] was “binds”.
